Reference: US20090137565A1, “Method for treatment of movement disorders” (The Trustees of Columbia University in the City of New York, priority 2004, published 2009)

Columns and labels:
[1] = system: medication-refractory, ethanol-responsive myoclonus (PHM, MD, PME); experiment: Twenty-patient open-label trial of sodium oxybate, blinded UMRS (myoclonus patients); assay type: in vivo, human; conditions: for Stim-sens. myoclonus score: dose 0 score 5.8; for Functional performance score: dose 0 score 12.9; for Action myoclonus score: dose 0 score 45.3; for Myoclonus at rest score: dose 0 score 7.4
Text: Twenty patients age 18 or older were recruited from a clinical practice at the Movement Disorders Division of Columbia University Medical Center. Eligible patients with medication-refractory, ethanol-responsive myoclonus (6 PHM, 3 MD, 2 PME) or ET (9 patients) (Table 1) were offered enrollment from February 2004 to March 2005. The medical center's institutional review board approved the protocol, and written informed consent was obtained from all participants. All had myoclonus or ET that improved (by self-report) with ingestion of ethanol. All patients were medication-refractory, defined as obtaining inadequate benefit from best medical treatment or being unable to tolerate treatment. The dose and timing of other medications were kept constant before and during the trial.
Twelve men and 8 women enrolled. Results from patients #6, and #s 1, 2, 7, 12, and 13 were reported previously. Frucht, S. J., et al. Mov Disord 20:745-51 (2005); Frucht, S. J., et al. Mov Disord 20:1330-7 (2005). Mean age/symptom duration was 43.9 yrs/12.3 yrs (myoclonus) and 71.2 yrs/26.7 yrs (ET). Patients with myoclonus were examined and videotaped at each visit using the Unified Myoclonus Rating Scale (UMRS), and patients with ET were examined and videotaped using the modified Washington Heights Inwood Genetic Essential Tremor Rating Scale (WHIGET; Appendix 1). Frucht, S. J., et al. Mov Disord 20:1330-7 (2005). After initial baseline examination and videotaping, patients took 1 gm of sodium oxybate by mouth (2 ml of the standard 0.5 gm/ml solution dissolved in 60 ml of water), and one hour later the videotaped examination was repeated. Patients were maintained on a dose of 1 gm T.I.D. (taken before meals) until their next office visit two weeks later, when the examination and videotaping were repeated one hour after receiving 1.5 gm of sodium oxybate. Subsequent visits and dose titrations at two-week intervals were repeated until the maximum dose was reached (3 gm T.I.D), patients were satisfied with the results of treatment, or until they developed side effects that they viewed as troublesome. Dosing for patients #1, 2, 6, 7, 12, and 13 was slightly different (1 gm BID, with dose increments of 2 gm to maximum dose of 4 gm BID), but office visits and videotaping protocol were otherwise identical.
The entire videotape segments and writing samples from each visit were copied and randomly ordered, and identifying features that might reveal trial order or drug dose were removed. A blinded movement disorder neurologist scored each videotape segment using the UMRS or the WHIGET. Sub-scores for each visit were calculated as described previously. Frucht, S. J., et al. Mov Disord 20:1330-7 (2005). Based on data from the first two ET cases, and assuming alpha=0.05, power=80%, and a 25% reduction in post-treatment tremor severity, we calculated that eight ET cases were required. A similar number of myoclonus patients would provide >80% power to detect a 25% reduction in the severity of post-treatment action myoclonus. Paired t tests were performed for scores pre- and post-treatment.

[2] = metabolized to carbon dioxide and water; cited from earlier work

For `O=C([O-])CCCO.[Na+]` [GHB, 4-hydroxybutanoic acid monosodium salt], the Stim-sens. myoclonus score ([1]; 1 gm, p 0.01**) was 3.2 (0.01)**, the Functional performance score ([1]; 1 gm, p 0.044*) was 11.0 (0.044)* and the Action myoclonus score ([1]; 1 gm, p 0.047*) was 33.4 (0.047)*. For the same compound, the Functional performance score ([1]; 1.5 gm, p 0.007*) was 9.6 (0.007)*, the Stim-sens. myoclonus score ([1]; 1.5 gm, p 0.11) was 3.2 (0.11) and the Action myoclonus score ([1]; 1.5 gm, p 0.122) was 26.8 (0.122). For the same compound, the “Myoclonus at rest score” value ([1]; 1.5 gm, p 0.247) was 1.2 (0.247), the Stim-sens. myoclonus score ([1]; 2 gm, p 0.001**) was 2.8 (0.001)** and the Action myoclonus score ([1]; 2 gm, p 0.005*) was 30.9 (0.005)*. The “Myoclonus at rest score” value ([1]; 2 gm, p 0.047*) was 3.6 (0.047)*, the Functional performance score ([1]; 2 gm, p <0.001**) was 6.0 (<0.001)** and the Functional performance score ([1]; 2.5 gm, p 0.002**) was 7.4 (0.002)**. The Action myoclonus score ([1]; 2.5 gm, p 0.046*) was 26.2 (0.046)*, the “Myoclonus at rest score” value ([1]; 2.5 gm, p 0.055) was 0.6 (0.055) and the Stim-sens. myoclonus score ([1]; 2.5 gm, p <0.001**) was 1.4 (<0.001)**. For the same compound, the Stim-sens. myoclonus score ([1]; 3.0 gm, p 0.02*) was 1.0 (0.02)*, the Functional performance score ([1]; 3.0 gm, p 0.059) was 6.9 (0.059) and the Action myoclonus score ([1]; 3.0 gm, p 0.064) was 33.0 (0.064). For the same compound, the “Myoclonus at rest score” value ([1]; 3.0 gm, p 0.129) was 0.75 (0.129), the “Myoclonus at rest score” value ([1]; individ. dose 1 gm, p 0.137 vs pre-treatment) was 4.9 (0.137) and the “dose of maximal improvement” value ([1]; myoclonus measures) was 2.5 gm. The Myoclonus at rest ([1]; patient #3 (MD), after receiving 3 mg (so in the source)) was “disappeared”, the “stimulus-sensitive myoclonus to sound and pinprick” value ([1]; patient #4 (PME), after 3 gm) was “only stimulus-sensitive myoclonus of the right hand remained” and the “action myoclonus on finger-to-nose” value ([1]; patient #6 (PHM), standing unassisted now possible) was “significantly improved”. The Myoclonus at rest ([1]; patient #11 (PHM), after receiving 2.5 mg (so in the source)) was “disappeared”, the “functional performance, using a soupspoon” value ([1]; patients #9 (PHM) and #5 (PME)) was “improved” and the active metabolites [2] was “has no active metabolites”.
